Converted amounts (≈) assume the structure as drawn.
Legend:
[1] = tested on: E. coli BAA-2469 (NDM-1 positive); test: Murine bacteraemia / bloodstream infection proof-of-concept study, IV bolus; type: in vivo
Method: (§1) Compound (I) and comparative compound (III) were evaluated in proof-of-concept studies in murine models for the treatment of a respiratory infection with Gram-negative bacteria of the order Enterobacterales, a bacteraemia or bloodstream infection with Gram-negative bacteria of the order Enterobacterales, and a urinary tract infection with Gram-negative bacteria of the order Enterobacterales. Each dot, triangle or square indicator represents a single mouse. LOD refers to the limit of detection of the bacteria. […] Each of the proof-of-concept studies was carried out separately. By vehicle is meant pharmaceutically acceptable carrier or excipient.
For the proof-of-concept study for the treatment of a bacteraemia or bloodstream infection with Gram-negative bacteria of the order Enterobacterales, CD-1 mice were infected with human urine isolate E. coli BAA-2469 (NDM-1 positive). One hour after infection (‘pre-treatment’ in FIG. 3), a vehicle (20% hydroxypropyl β cyclodextrin) containing no compound (I) or comparative compound (III), or a vehicle (20% hydroxypropyl β cyclodextrin) containing compound (I) or comparative compound (III), was administered by as a single dose IV bolus at 20 mg/kg.

E. coli UT189 = test: Murine urinary tract infection proof-of-concept study, IV bolus; type: in vivo
Method: as §1, with “excipient. For the proof-of-concept study for the treatment of a urinary tract infection with Enterobacterales, female C3H/HeN mice were infected with E. coli UT189. Twenty-four hours after infection (‘pre-treatment’ in FIGS. 4a-c), a vehicle (20% hydroxypropyl β cyclodextrin) containing no compound (I) or comparative compound (III), or a vehicle (20% hydroxypropyl β cyclodextrin) containing compound (I) or comparative compound (III), was administered by IV bolus of 20 mg/kg, TID (8 hrs apart), over 3 days.” for “excipient.”

[2] = tested on: Providencia spp. (10 isolates); test: MIC by broth microdilution (EUCAST), 10 isolates; type: cell-based
Method: (§2) Minimum Inhibitory Concentration (MIC90) versus 100 isolates of Escherichia coli and Klebsiella pneumonia were determined. The Minimum Inhibitory Concentration at which 90% of the isolates (strains) are inhibited (MIC90) were measured by broth microdilution in line with EUCAST susceptibility testing standards (www.eucast.org). Bacterial inocula were prepared at ca 1×10^6 CFU/mL by diluting 100-fold a 0.5 McFarland suspension. Antibacterial panels containing 50 μl of antibacterial solutions at 2× the final concentrations were diluted 2-fold with 50 μl of inoculum to give a final inoculum of ca 5×10^5 CFU/ml and desired test concentrations of antibacterial agents (0.03-64 μg/mL). The plates were incubated according to the guidelines of the Clinical and Laboratory Standards Institute (Clinical and Laboratory Standards Institute. Methods for Dilution Antimicrobial Susceptibility Tests for Bacteria That Grow Aerobically; Approved Standard-Eleventh Edition, CLSI document […], 11 Jan. 2018). The MIC90 (μg/ml) is the MIC value at which greater than or equal to 90% of the isolates (strains) within a test population are inhibited. Minimum Inhibitory Concentrations (MICs) versus Proteus spp. and Providencia spp. were determined for compound (I) and comparative compound (III) using the methodology outlined above for the 100 isolates of Escherichia coli and Klebsiella pneumonia.

[3] = tested on: Proteus spp. (10 isolates); test: MIC by broth microdilution (EUCAST), 10 isolates; type: cell-based
Method: as §2

Permeability = type: in vitro ADME
[4] = tested on: Escherichia coli (100 isolates); test: MIC90 by broth microdilution (EUCAST), 100 isolates; type: cell-based
Method: as §2, with “inhibited.” for “inhibited. Minimum Inhibitory Concentrations (MICs) versus Proteus spp. and Providencia spp. were determined for compound (I) and comparative compound (III) using the methodology outlined above for the 100 isolates of Escherichia coli and Klebsiella pneumonia.”

[5] = tested on: Klebsiella pneumonia (100 isolates); test: as above; type: cell-based
Method: as §2, with “inhibited.” for “inhibited. Minimum Inhibitory Concentrations (MICs) versus Proteus spp. and Providencia spp. were determined for compound (I) and comparative compound (III) using the methodology outlined above for the 100 isolates of Escherichia coli and Klebsiella pneumonia.”

[6] = IV bolus 20 mg/kg TID over 3 days, 96 h after initial infection
[7] = difference in log reduction, 96 h

## Cc1cnccc1-c1[nH]c(N)nc1-c1ccc2c(c1)N(C(=O)C(C)(C)N)CCO2 [Compound (I), 2-amino-1-(6-(2-amino-5-(3-methylpyridin-4-yl)-1H-imidazol-4-yl)-2,3-dihydro-4H-benzo[b][1,4]oxazin-4-yl)-2-methylpropan-1-one]
[1]; CD-1 mice, single dose IV bolus 20 mg/kg, 9 h from initial infection
  reduction of bacterial burden in the blood compared to vehicle: 7.43 log
[1]; difference in log reduction, 9 h
  more efficacious than comparative compound (III), blood: 2.5 log
[1]; single dose IV bolus 20 mg/kg, 9 h from initial infection
  bacterial burden (CFU) in the blood at end of study: below the limit of detection (LOD)
E. coli UT189; IV bolus 20 mg/kg TID over 3 days, 96 h
  bacterial burden in the urine at end of study: below the limit of detection (LOD)
E. coli UT189; [6]
  reduction of bacterial burden in the bladder compared to vehicle: 5.67 log
  reduction of bacterial burden in the kidney compared to vehicle: 4.73 log
E. coli UT189; [7]
  more efficacious than comparative compound (III), bladder: 3 log
  more efficacious than comparative compound (III), urine: 3 log
E. coli UT189; female C3H/HeN mice, IV bolus 20 mg/kg TID over 3 days, 96 h after initial infection
  reduction of bacterial burden in the urine compared to vehicle: 6.59 log
[2]
  MIC Range: 0.5 to 16 µg/mL
[3]
  MIC Range: 8 to 32 µg/mL
Permeability
  permeability: good permeability
[4]
  MIC90: 1 µg/mL (≈ 2.55 µM)
  MIC Range: 0.12 to 4.00 µg/mL
[5]
  MIC Range: 0.25 to 8.00 µg/mL
[5]; Klebsiella pneumoniae
  MIC90: 2 µg/mL (≈ 5.1 µM)

Reference: patent US20240228474A1, “ANTIBACTERIAL COMPOUND” (DISCUVA LIMITED, priority 2021, published 2024)
